# According to patent US20210177751A1, “HYPOTONIC HYDROGEL FORMULATIONS FOR ENHANCED TRANSPORT OF ACTIVE AGENTS AT MUCOSAL SURFACES” (The Johns Hopkins University, priority 2017, published 2021):
# Columns and labels:
# [1] = test system: retinal ganglion cells (RGCs); test: optic nerve crush with once weekly topical dosing; type: in vivo, rat (Brown Norway); settings: Day 22
# Protocol: Pigmented rats (Brown Norway) were dosed topically (5 uL at 4 mg/mL) with sunitinib malate in 12% F127 or in saline once weekly unilaterally. The optic nerve head was exposed and crushed unilaterally on Day 8 and the contralateral eye was used as the control for comparison. 14 days after crushing the nerve (Day 22), the tissues were isolated for qPCR for genes expressed by retinal ganglion cells (RGCs).
# [2] = ocular tissue distribution in farm pigs (LC-MS); type: in vivo, pig; settings: 4 mg/ml in 12% F127, daily for 5 days; tissues 1 h after final dose
# Protocol: (§1) Sunitnib malate was dissolved in 12% F127 at a concentration of 4 mg/ml and dosed topically to pigmented (Dutch belted) rabbits and pigmented pigs (juvenile farm pigs) once per day for a total of 14 days or 5 days, respectively. Dosing in both rabbits and pigs occurred without anesthesia and 50 uL or 50˜100 uL of an eye drop was administered, respectively. However, dosing in pigs occurred while distracted with food. Tissues were collected 6 h after the final dose for rabbits and 1 h after the final dose for pigs. The drug concentrations were measured by LC-MS.
# [3] = ocular tissue distribution in Dutch belted rabbits (LC-MS); type: in vivo, rabbit; settings: 4 mg/ml in 12% F127, daily for 14 days; tissues 6 h after final dose
# Protocol: as §1
# [4] = test system: retinal ganglion cells (RGCs); test: optic nerve crush after 5 daily topical doses, pigmented rats; type: in vivo, rat (Brown Norway); settings: in 12% F127, daily for 5 days before crush; 14 days after crush; pigmented rats (Brown Norway)
# Protocol: Rats were dosed topically with sunitinib malate (5 uL at 4 mg/mL) in 12% F127 daily for 5 days unilaterally. Then, the optic nerve head was exposed and crushed unilaterally and the contralateral eye was used as the control for comparison. 14 days after crushing the nerve (without additional topical dosing), the tissues were isolated for qPCR for genes expressed by retinal ganglion cells (RGCs).
# [5] = test system: C57/B6 mice; test: laser-induced choroidal neovascularization (CNV) in mice; type: in vivo, mouse; settings: topical daily for 7 days
# Protocol: C57/B6 mice where used to test the topical delivery of sunitinib malate (5 uL at 4 mg/mL) and acriflavine (5 uL at 5 mg/mL) in preventing choroidal neovascularization (CNV) in mice after laser induced rupture of Bruch's membrane in three locations. After laser, both drugs either dissolved in 12% F127 or a aqueous vehicle control (saline or water), were dosed daily for 7 days.
# [6] = dissolved in aqueous vehicle control (saline or water)
compound,measurement,setting,value
CCN(CC)CCNC(=O)c1c(C)[nH]c(/C=C2\C(=O)Nc3ccc(F)cc32)c1C [sunitinib malate],protection of RGCs (qPCR for RGC genes),"[1]; in 12% F127, once weekly",Protection of RGCs was only observed when sunitinib malate was dosed in 12% F127
same,protection of RGCs (qPCR for RGC genes),"[1]; in saline, once weekly",not when sunitinib malate was dosed in saline
same,sunitinib and N-desethyl sunitinib levels in ocular tissues and fluids,[2],Therapeutically relevant levels of drug were found in the anterior and posterior segments
same,sunitinib and N-desethyl sunitinib levels in ocular tissues and fluids,[3],Therapeutically relevant levels of drug were found in the anterior and posterior segments
same,protection of RGCs (qPCR for RGC genes),[4],protection of RGCs
same,suppression of choroidal neovascularization,[5]; dissolved in 12% F127,efficacious in suppressing neovascularization in the choroid
same,suppression of choroidal neovascularization,[5]; [6],Only the formulations containing 12% F127 were efficacious
acriflavine,suppression of choroidal neovascularization,[5]; dissolved in 12% F127,efficacious in suppressing neovascularization in the choroid
same,suppression of choroidal neovascularization,[5]; [6],Only the formulations containing 12% F127 were efficacious
